Measured values taken from patent US9808003B2, “Herbicidally active 2-(substituted-phenyl)-cyclopentane-1,3-dione compounds and derivatives thereof” (Syngenta Limited, priority 2013, dated 2017).

Assays:
Assay in all cases: Test 1A glasshouse assay, post-emergence herbicidal activity
Format in all cases: in vivo
[1] = tested on: Echinochloa crus-galli (ECHCG); conditions: Echinochloa crus-galli, 312 h, application rate 250 g/ha, 13 days after application, visual (100%=total damage; 0%=no damage), read-out: Post-emergence Herbicidal Activity (% Phytotoxicity) ECHCG
Procedure: (§1) Seeds of a variety of test species were sown in standard soil in pots. After cultivation for one day (pre-emergence) or after 8 days cultivation (post-emergence) under controlled conditions in a glasshouse (at 24/16° C., day/night; 14 hours light; 65% humidity), the plants were sprayed with an aqueous spray solution derived from the formulation of the technical active ingredient in acetone/water (50:50) solution containing 0.5% Tween 20 (polyoxyethelyene sorbitan monolaurate, CAS RN 9005-64-5). The test plants were then grown under controlled conditions in a glasshouse (at 24/16° C., day/night; 14 hours light; 65% humidity) and watered twice daily. 13 days after application of the test herbicide, for pre- and post-emergence, the test was evaluated visually for percentage phytotoxicity to the plant (where 100%=total damage to plant; 0%=no damage to plant).
(§2) Lolium perenne (LOLPE), Alopecurus myosuroides (ALOMY), Echinochloa crus-galli (ECHCG), and Avena fatua (AVEFA); these are all grassy monocotyledonous weeds.

[2] = tested on: Alopecurus myosuroides (ALOMY); conditions: Alopecurus myosuroides, 312 h, application rate 250 g/ha, 13 days after application, visual (100%=total damage; 0%=no damage), read-out: Post-emergence Herbicidal Activity (% Phytotoxicity) ALOMY
Procedure: as §1, §2

[3] = tested on: Avena fatua (AVEFA); conditions: Avena fatua, 312 h, application rate 250 g/ha, 13 days after application, visual (100%=total damage; 0%=no damage), read-out: Post-emergence Herbicidal Activity (% Phytotoxicity) AVEFA
Procedure: as §1, §2

[4] = tested on: Lolium perenne (LOLPE); conditions: Lolium perenne, 312 h, application rate 250 g/ha, 13 days after application, visual (100%=total damage; 0%=no damage), read-out: Post-emergence Herbicidal Activity (% Phytotoxicity) LOLPE
Procedure: as §1, §2

Row | SMILES | pest or weed control at 250 g/ha [1] [%] | pest or weed control at 250 g/ha [2] [%] | pest or weed control at 250 g/ha [3] [%] | pest or weed control at 250 g/ha [4] [%]
1 | CCC(CC1CC(=O)C(c2c(C)cc(C)cc2C)C1=O)NC(=O)c1ccccc1 (stereo not drawn) [Compound A88] | 100 | 80 | 90 | 100
2 | Cc1cc(C)c(C2C(=O)CC(CCNC(=O)c3cccc(F)n3)C2=O)c(C)c1 (stereo not drawn) [Compound A89A] | 100 | 100 | 100 | 100
3 | COc1cccc(C(=O)NCCC2CC(=O)C(c3c(C)cc(C)cc3C)C2=O)n1 (stereo not drawn) [Compound A91] | 80 | 80 | 80 | 80
4 | CCOc1cccc(C(=O)NCCC2CC(=O)C(c3c(C)cc(C)cc3C)C2=O)n1 (stereo not drawn) [Compound A92] | 70 | 80 | 80 | 70
5 | Cc1cc(C)c(C2C(=O)CC(CCNC(=O)c3cccc(-c4ccccc4)n3)C2=O)c(C)c1 (stereo not drawn) [Compound A93] | 50 | 70 | 40 | 70
6 | Cc1cc(C)c(C2C(=O)CC(CCNC(=O)c3cccc(C(F)(F)F)n3)C2=O)c(C)c1 (stereo not drawn) [Compound A94] | 90 | 90 | 100 | 80
7 | Cc1cc(C)c(C2C(=O)CC(CCNC(=O)c3ncccc3F)C2=O)c(C)c1 (stereo not drawn) [Compound A96] | 100 | 100 | 100 | 100
8 | Cc1cc(C)c(C2C(=O)CC(CCNC(=O)c3ccc(F)cn3)C2=O)c(C)c1 (stereo not drawn) [Compound A97] | 100 | 100 | 100 | 100
9 | Cc1cc(-c2ncc(Cl)cc2F)cc(C)c1C1C(=O)CC(CCNC(=O)c2ccccn2)C1=O (stereo not drawn) [Compound A102] | 100 | 100 | 100 | 100
10 | Cc1cc(-c2ccc(Cl)cc2)cc(C)c1C1C(=O)CC(CCNC(=O)c2ccccn2)C1=O (stereo not drawn) [Compound A104] | 100 | 90 | 90 | 100
11 | Cc1cc(Cl)c(C2C(=O)CC(CCNC(=O)c3ccccn3)C2=O)c(Cl)c1 (stereo not drawn) [Compound A105] | 100 | 40 | 90 | 90
12 | O=C(NCCC1CC(=O)C(c2c(Cl)cc(-c3ccc(F)cc3)cc2Cl)C1=O)c1ccccn1 (stereo not drawn) [Compound A106] | 100 | 90 | 100 | 100
13 | Cc1cc(-c2cc(F)cc(F)c2)cc(C)c1C1C(=O)CC(CCNC(=O)c2ccccn2)C1=O (stereo not drawn) [Compound A109] | 100 | 100 | 100 | 100
14 | Cc1cc(-c2ccc(F)c(Cl)c2)cc(C)c1C1C(=O)CC(CCNC(=O)c2ccccn2)C1=O (stereo not drawn) [Compound A110] | 100 | 90 | 100 | 100
15 | Cc1cc(-c2cccc(Cl)c2)cc(C)c1C1C(=O)CC(CCNC(=O)c2ccccn2)C1=O (stereo not drawn) [Compound A111, N-[2-[3-[4-(3-chlorophenyl)-2,6-dimethyl-phenyl]-2,4-dioxo-cyclopentyl]ethyl]pyridine-2-carboxamide] | 100 | 100 | 100 | 100
16 | CC#Cc1cc(C)c(C2C(=O)CC(CCNC(=O)c3cccc(F)n3)C2=O)c(C)c1 (stereo not drawn) [Compound A114] | 100 | 100 | 100 | 100
17 | CC#Cc1cc(C)c(C2C(=O)CC(CCNC(=O)C(C)(C)C)C2=O)c(C)c1 (stereo not drawn) [Compound A115] | 100 | 100 | 100 | 100

Row | SMILES | pest or weed control at 250 g/ha [1] [%] | pest or weed control at 250 g/ha [2] [%] | pest or weed control at 250 g/ha [3] [%] | pest or weed control at 250 g/ha [4] [%]
18 | CC#Cc1cc(C)c(C2C(=O)CC(CCNC(=O)c3ccc(F)cc3)C2=O)c(C)c1 (stereo not drawn) [Compound A116] | 100 | 90 | 100 | 100
19 | Cc1cc(-c2ccc(F)cn2)cc(C)c1C1C(=O)CC(CCNC(=O)c2ccccn2)C1=O (stereo not drawn) [Compound A117] | 100 | 100 | 100 | 100
20 | Cc1cc(C)c(C2C(=O)CC(CCNC(=O)c3ccc(Cl)cn3)C2=O)c(C)c1 (stereo not drawn) [Compound A118] | 100 | 100 | 100 | 100
21 | Cc1ccnc(C(=O)NCCC2CC(=O)C(c3c(C)cc(C)cc3C)C2=O)c1 (stereo not drawn) [Compound A119] | 100 | 100 | 90 | 90
22 | Cc1cc(C)c(C2C(=O)CC(CCNC(=O)c3cc(Br)ccn3)C2=O)c(C)c1 (stereo not drawn) [Compound A121] | 100 | 90 | 90 | 100
23 | COc1cc(C)c(C2C(=O)CC(CCNC(=O)c3ccccn3)C2=O)c(C)c1 (stereo not drawn) [Compound A122] | 100 | 100 | 90 | 100
24 | Cc1cccc(C)c1C1C(=O)CC(CCNC(=O)c2ccccn2)C1=O (stereo not drawn) [Compound A123] | 90 | 100 | 100 | 100
25 | Cc1cc(Cl)cc(C)c1C1C(=O)CC(CCNC(=O)c2ccccn2)C1=O (stereo not drawn) [Compound A124] | 100 | 100 | 100 | 100
26 | Cc1cc(Br)cc(C)c1C1C(=O)CC(CCNC(=O)c2ccccn2)C1=O (stereo not drawn) [Compound A125] | 100 | 100 | 100 | 100
27 | Cc1cc(OCC(F)(F)F)cc(C)c1C1C(=O)CC(CCNC(=O)c2ccccn2)C1=O (stereo not drawn) [Compound A126, N-[2-[3-[2,6-dimethyl-4-(2,2,2-trifluoroethoxy)phenyl]-2,4-dioxo-cyclopentyl]ethyl]pyridine-2-carboxamide] | 100 | 100 | 100 | 100
28 | Cc1cc(Oc2ncc(Cl)cc2F)cc(C)c1C1C(=O)CC(CCNC(=O)c2ccccn2)C1=O (stereo not drawn) [Compound A126A] | 90 | 90 | 90 | 90
29 | Cc1cc(Oc2ncc(C(F)(F)F)cc2Cl)cc(C)c1C1C(=O)CC(CCNC(=O)c2ccccn2)C1=O (stereo not drawn) [Compound A126B, N-[2-[3-[4-[[3-chloro-5-(trifluoromethyl)-2-pyridyl]oxy]-2,6-dimethyl-phenyl]-2,4-dioxo-cyclopentyl]ethyl]pyridine-2-carboxamide] | 100 | 90 | 90 | 90
30 | Cc1cc(-n2cc(Cl)cn2)cc(C)c1C1C(=O)CC(CCNC(=O)c2ccc(F)cn2)C1=O (stereo not drawn) [Compound A129] | 100 | 100 | 100 | 100
31 | Cc1cccc(C(=O)NCCC2CC(=O)C(c3c(C)cc(-n4cc(Cl)cn4)cc3C)C2=O)n1 (stereo not drawn) [Compound A130] | 80 | 30 | 80 | 80
32 | Cc1cc(-n2cc(Cl)cn2)cc(C)c1C1C(=O)CC(CCNC(=O)c2nc(Cl)ccc2Cl)C1=O (stereo not drawn) [Compound A131] | 100 | 100 | 100 | 100
33 | Cc1cc(-n2cc(Cl)cn2)cc(C)c1C1C(=O)CC(CCNC(=O)c2cccc(Cl)n2)C1=O (stereo not drawn) [Compound A132] | 100 | 100 | 100 | 100
